Ends that are not written are not given here.
Tests used:
in vitro [1] = format: cell-based; conditions: mouse
Protocol: (§1) A cytotoxicity experiment was performed by a test method using a Cyto X™ cell viability assay kit (LPS SOLUTION). A 96-well cell culture plate was purchased from Corning, and mammalian cell lines were purchased from the American Type Culture Collection (ATCC). Also, the CytoX™ cell viability assay kit was purchased from LPS SOLUTION.
(§2) As an experimental method, stored frozen cells were thawed, cultured in a DMEM or RP 11640 medium supplemented with 10% FBS, and then sub-cultured at intervals of 2 to 3 days until a density of the cells reached 80 to 90%. For this experiment, the cells were detached by treating the cells with trypsin-EDTA, and then divided into wells of a 96-well plate so that the number of the cells amounted to 10,000 cells. Thereafter, the cells were cultured at 37° C. for 24 hours in a CO2 incubator. Each of the prepared peptides was diluted with DMSO to concentrations of 10, 1, 0.1, 0.01, and 0.001 mM, and then diluted at 1:100 by adding 1 μl of DMSO or each of the prepared peptides to each well. Then, the cells were cultured at 37° C. for 24 hours in a CO2 incubator. To measure cytotoxicity, 10 μl of each of the peptides prepared using the Cyto X™ cell viability assay kit (LPS SOLUTION) was added to each well. The cells were cultured at 37° C. for 1 to 4 hours in a CO2 incubator, and an optical density was measured at 450 nm using a microplate reader. Then, the measured optical density was calculated as a percentage of a value measured for DMSO, and a graph was plotted using GraphPad Prism 5. Then, an IC50 value was calculated. When each of the IC50 values of the four peptides in each cell line was greater than or equal to 10 μM, the peptides were judged to have no general cytotoxicity.

[2] = system: Listeria innocua MC2 KCTC 3658, Staphylococcus aureus ATCC 6538, Pseudomonas aeruginosa ATCC 27853, Salmonella ATCC 19430, Escherichia coli KCTC 1682; assay: Minimal inhibitory concentration, standard broth microdilution method; format: cell-based; conditions: five strains, 37° C., 12 hours
Protocol: An antimicrobial assay was performed by measuring a minimal inhibitory concentration (MIC) value using a standard broth microdilution method. The antimicrobial activity of each of the peptides was measured using two gram-positive bacteria (Listeria innocua MC2 KCTC 3658 and Staphylococcus aureus ATCC 6538) and three gram-negative bacteria (Pseudomonas aeruginosa ATCC 27853, Salmonella ATCC 19430, and Escherichia coli KCTC 1682). 50 μl of each of the five bacterial strains were prepared, mixed with 5 ml of 3.7% BHI, and then cultured overnight under conditions of 37° C. and 240 rpm. Thereafter, 50 μl of each of the cultured bacterial strains was mixed with 5 ml of 3.7% BHI, and cultured for 2 hours under conditions of 37° C. and 240 rpm. Each of the cultured bacterial strains was diluted with a 0.037% BHI solution to a concentration of 1×10^8 CFU/ml.
A dissolved synthetic peptide was diluted twofold, stepwise, with BHIB in a 96 well-plate. […] After the incubation, a change in optical density at 600 nm was measured using Microplate Reader Multiskan FC (Thermo Scientific, Waltham, Mass., USA), and a range of the MIC was set as the lowest concentration of a peptide in which the growth of bacteria starts to be inhibited. […]

in vitro [3] = format: cell-based
Protocol: as §1, §2

CHO-K1 cell line = assay: in vitro; format: cell-based
Protocol: as §1, §2

[4] = at a concentration of 200 μM or less; cited from earlier work
[5] = system: gram-positive and gram-negative bacteria; conditions: cited from earlier work

H-NKVKEWIKYLKSLFK-OH [YK5, NKVKE WIKYL KSLFK]
IC50 at 24 h (in vitro [1]): > 100 µM
antibacterial activity (MIC experiment, FIG. 2) [2]: effective antibacterial activity against the five strains when used at a low concentration
IC50 at 24 h (in vitro [3]; African green monkey): > 100 µM
IC50 at 24 h (in vitro [3]; Chinese hamster): 57 µM
IC50 at 24 h (in vitro [3]; human): > 100 µM
IC50 at 24 h (in vitro [3]; mouse): > 100 µM
cytotoxicity compared with YK3 (CHO-K1 cell line): lower cytotoxicity than the YK3 peptide

NKVKEWIKYLKSKFK [YK8, NKVKE WIKYL KSKFK]
IC50 at 24 h (in vitro [1]): > 100 µM
IC50 at 24 h (in vitro [3]; African green monkey): > 100 µM
IC50 at 24 h (in vitro [3]; Chinese hamster): 71.9 µM
IC50 at 24 h (in vitro [3]; human): > 100 µM
IC50 at 24 h (in vitro [3]; mouse): > 100 µM
cytotoxicity compared with YK3 (CHO-K1 cell line): lower cytotoxicity than the YK3 peptide

NKVKEWIKYLKSLFS [YK3, NKVKE WIKYL KSLFS]
IC50 at 24 h (in vitro [3]; African green monkey): 99.1 µM
IC50 at 24 h (in vitro [3]; Chinese hamster): 56.2 µM
IC50 at 24 h (in vitro [3]; human): 94 µM

NKVKEWWKWLKKL [YK11, NKVKE WWKWL KKL]
IC50 at 24 h (in vitro [1]): 96.6 µM
IC50 at 24 h (in vitro [3]; African green monkey): 83.7 µM
IC50 at 24 h (in vitro [3]; Chinese hamster): 86.8 µM
IC50 at 24 h (in vitro [3]; human): > 100 µM
IC50 at 24 h (in vitro [3]; mouse): > 100 µM
cytotoxicity compared with YK3 (CHO-K1 cell line): lower cytotoxicity than the YK3 peptide

NTVKETIKYLKSLFSHAFEVVKT (NTVKETIKYLKSLFSHAFEVVKT; LPcin-1 (23mer)) [LPcin-I, wild-type lactophoricin from cow milk, 23 amino acid residues, carboxyl terminal 113 to 135 region of PP3]
hemolytic action [4]: does not have a hemolytic action
growth inhibition / antimicrobial functionality [5]: inhibits the growth of both gram-positive and gram-negative bacteria

Source: patent US10150795B2, “Peptide having antimicrobial activity against pathogens and antimicrobial peptide composition comprising the same” (Hankuk University of Foreign Studies Research & Business …, priority 2016, dated 2018)
